Test results taken from article PMC6834077, “The evolving story of AtzT, a periplasmic binding protein” (Acta Crystallographica. Section D, Structural Biology, 2019).
“And” between values parts separate entries of the source, which are not always exact repeats. Equal entries are not always repeated. Where two headings read alike, the source gives them in different places.

Target: AtzT (Pseudomonas sp. (strain ADP), UniProt Q936X6)
Test: Surface plasmon resonance (SPR) binding to immobilized AtzT, 1:1 steady-state affinity model
[1] = Biacore S200, CM5 chip, 293 K, HBS-P+ buffer with 2%(v/v) DMSO, mean ± standard deviation (n = 3)

Sequence of AtzT (Q936X6 27-360 limits assumed): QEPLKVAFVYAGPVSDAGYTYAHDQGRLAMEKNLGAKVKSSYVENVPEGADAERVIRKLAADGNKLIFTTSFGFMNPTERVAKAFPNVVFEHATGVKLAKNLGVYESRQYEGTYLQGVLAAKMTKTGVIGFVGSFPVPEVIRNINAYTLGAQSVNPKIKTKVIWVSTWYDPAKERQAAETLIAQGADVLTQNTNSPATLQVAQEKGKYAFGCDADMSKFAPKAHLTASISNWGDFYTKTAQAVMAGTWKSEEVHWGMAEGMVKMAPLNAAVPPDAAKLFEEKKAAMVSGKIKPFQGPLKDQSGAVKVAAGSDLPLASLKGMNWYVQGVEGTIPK

SMILES | Kd [1] | also measured
Nc1ncnc2nc[nH]c12 [Adenine] | 2.5 ± 0.3 µM | Kd: ~2.5 µM
CCNc1nc(O)nc(NC(C)C)n1 [2-Hydroxyatrazine] | 2.2 ± 0.2 µM | fold tighter binding than atrazine (2-hydroxyatrazine vs atrazine): ~700 fold and > 600 fold
Nc1nc2c(ncn2[C@@H]2O[C@H](COP(=O)(O)OP(=O)(O)OP(=O)(O)O)[C@@H](O)[C@H]2O)c(=O)[nH]1 [GTP] | > 8000 µM | –
CCC1(CC)C(=O)NC(=O)NC1=O [Barbitone] | > 8000 µM | –
O=c1[nH]c(=O)[nH]c(=O)[nH]1 [Cyanuric acid] | 340 ± 30 µM | –
O=c1cc[nH]c(=O)[nH]1 [Uracil] | 1600 ± 300 µM | –
Nc1nc2nc[nH]c2c(=O)[nH]1 [Guanine] | 0.11 ± 0.02 µM | Kd: ~0.11 µM; time in which the majority of the guanine dissociates from AtzT (Supplementary Fig. S4): ~20 s
OB(O)c1ccc(I)cc1 [4-Iodophenylboronic acid] | 5000 ± 1000 µM | –
Nc1cc[nH]c(=O)n1 [Cytosine] | 800 ± 90 µM | –
CCNc1nc(Cl)nc(NC(C)C)n1 [Atrazine] | 1500 ± 200 µM | Kd: ~1500 µM
O=C1CC(=O)NC(=O)N1 [Barbaturic acid] | > 8000 µM | –
Cc1c[nH]c(=O)[nH]c1=O [Thymine] | 620 ± 40 µM | –
Nc1nc(N)nc(O)n1 [Ammeline] | 0.36 ± 0.02 µM | fold difference in K D between ammeline and ammelide (ammeline vs ammelide): > 250 fold
O=C(O)c1c(Br)c(Br)c(C(=O)O)c(Br)c1Br [Tetrabromoterephthalic acid] | > 8000 µM | –
Nc1nc(N)nc(N)n1 [Melamine] | > 400 µM | –
